34 compounds from ChEMBL document CHEMBL3580578, “Optimization of 5-(2,6-dichlorophenyl)-3-hydroxy-2-mercaptocyclohex-2-enones as potent inhibitors of human lactate dehydrogenase” (Bioorg Med Chem Lett, 2014) can be followed below.

Data set [1] deals with T1, Malate dehydrogenase, cytoplasmic (Homo sapiens, UniProt P40925).
T1 sequence (P40925 whole entry): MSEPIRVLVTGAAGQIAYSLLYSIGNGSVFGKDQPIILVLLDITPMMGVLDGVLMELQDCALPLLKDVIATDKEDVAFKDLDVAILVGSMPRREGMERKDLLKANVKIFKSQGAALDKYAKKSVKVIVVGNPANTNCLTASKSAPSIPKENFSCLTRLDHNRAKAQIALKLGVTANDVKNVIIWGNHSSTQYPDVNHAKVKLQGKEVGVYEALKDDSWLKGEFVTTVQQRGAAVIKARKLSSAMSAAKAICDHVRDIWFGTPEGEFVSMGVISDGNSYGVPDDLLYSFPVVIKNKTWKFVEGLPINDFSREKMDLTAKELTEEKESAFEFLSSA
The experiment in a line: Inhibition of malate dehydrogenase 1 (unknown origin).

The target of data set [2] is T2, Malate dehydrogenase, mitochondrial (Homo sapiens, UniProt P40926).
T2 sequence (P40926 whole entry): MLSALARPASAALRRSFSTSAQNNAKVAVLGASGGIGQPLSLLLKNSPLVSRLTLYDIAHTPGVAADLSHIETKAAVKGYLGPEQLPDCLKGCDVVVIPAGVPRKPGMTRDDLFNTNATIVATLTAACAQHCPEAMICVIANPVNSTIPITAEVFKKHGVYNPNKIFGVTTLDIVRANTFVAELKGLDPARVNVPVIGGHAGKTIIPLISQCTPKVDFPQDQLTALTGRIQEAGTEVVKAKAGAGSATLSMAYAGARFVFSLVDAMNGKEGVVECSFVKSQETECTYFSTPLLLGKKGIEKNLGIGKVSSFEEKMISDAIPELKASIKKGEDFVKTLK
The experiment in a line: Inhibition of malate dehydrogenase 2 (unknown origin).

Data set [3] has as its target L-lactate dehydrogenase A chain (Homo sapiens, UniProt P00338). The data set can be described thus: Inhibition of human LDH-A by biochemical assay.
Data set [4] in a line: Kinetic solubility of the compound in PBS buffer at pH 7.4.
The nature of data set [5]: Apparent permeability from apical to basolateral side in MDCK cells. The class given is ADME, cell-based, Canis lupus familiaris. Conditions: dog.
Data set [6] is described as follows: Stability in mouse plasma assessed as parent compound remaining at 37 degC after 1 hr. Type of data set: ADME, cell-free. Conditions: read-out: Stability.
Data set [7] deals with L-lactate dehydrogenase B chain (Homo sapiens, UniProt P07195).
Description: Inhibition of LDH-B (unknown origin)
Data set [8] is described as follows: Plasma protein binding in human. Type of data set: ADME, cell-free. Conditions: read-out: PPB.

Values after ≈ are worked out from the molar mass of the structure shown.

Sequence of L-lactate dehydrogenase B chain (P07195 whole entry): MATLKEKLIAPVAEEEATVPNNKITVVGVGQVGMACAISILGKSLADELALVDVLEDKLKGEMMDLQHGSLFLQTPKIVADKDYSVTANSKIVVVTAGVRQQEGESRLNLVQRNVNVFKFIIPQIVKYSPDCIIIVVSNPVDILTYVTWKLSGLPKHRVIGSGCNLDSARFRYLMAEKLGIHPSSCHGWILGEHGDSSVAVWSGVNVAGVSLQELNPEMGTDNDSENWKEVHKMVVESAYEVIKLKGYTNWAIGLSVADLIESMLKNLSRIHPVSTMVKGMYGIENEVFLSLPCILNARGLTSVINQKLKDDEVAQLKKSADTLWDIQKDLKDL

Turning to `O=C1CC(c2c(Cl)cccc2Cl)CC(O)=C1Sc1ccccc1Cl` (configuration not stated), the IC50 in data set [1] and in data set [2] was not below 10 µM in each case.
With `O=C1CC(c2c(Cl)ccc(N3CCOCC3)c2Cl)CC(O)=C1Sc1ccccc1Cl` (configuration not stated), the figures for the IC50 in data set [1], in data set [3] and in data set [2] were not below 10 µM, 0.24 µM and not below 10 µM, respectively.
Turning to `O=C1CC(c2c(Cl)cc(N3CCOCC3)cc2Cl)CC(O)=C1Sc1ccccc1Cl` (configuration not stated), the IC50 (in general, the concentration that inhibits the measured activity by half) is not below 10 µM in data set [1], 2.6 µM in data set [3] and not below 10 µM in data set [2].
Consider `O=C1CC(c2c(Cl)ccc(N3CCN(C4CC4)CC3)c2Cl)CC(O)=C1Sc1ccccc1Cl` (configuration not stated), for which the IC50 was not below 10 µM in data set [1], 0.23 µM in data set [3] and not below 10 µM in data set [2].
On to `O=C1CC(c2c(Cl)ccc(N3CCN(C4COC4)CC3)c2Cl)CC(O)=C1Sc1ccccc1Cl` (configuration not stated), for which the IC50 is not below 10 µM in data set [1], 0.37 µM in data set [3] and not below 10 µM in data set [2].
Regarding `CC(=O)N1CCN(c2ccc(Cl)c(C3CC(=O)C(Sc4ccccc4Cl)=C(O)C3)c2Cl)CC1` (configuration not stated), the figures for the IC50 in data set [1], in data set [3] and in data set [2] were not below 10 µM, 0.1 µM and not below 10 µM, respectively.
With `O=C1CC(c2c(Cl)ccc(N3CCNCC3)c2Cl)CC(O)=C1Sc1ccccc1Cl` (configuration not stated), the IC50 in data set [1] was not below 10 µM; in data set [3], 0.17 µM; in data set [2], not below 10 µM.
As for `O=C1CC(c2c(Cl)ccc(NC3CCOCC3)c2Cl)CC(O)=C1Sc1ccccc1Cl` (configuration not stated), the IC50 in data set [1] is not below 10 µM; in data set [3], 0.06 µM; in data set [2], not below 10 µM.
In the case of `CC(C)Oc1ccc(Cl)c(C2CC(=O)C(Sc3ccccc3Cl)=C(O)C2)c1Cl` (configuration not stated), the IC50 in data set [1] is not below 10 µM; in data set [3] it was 0.09 µM; in data set [2] it was not below 10 µM.
`O=C1CC(c2c(Cl)ccc(-c3ccccc3)c2Cl)CC(O)=C1Sc1ccccc1Cl` (configuration not stated): the results for the IC50 in data set [1], in data set [3] and in data set [2] were not below 10 µM, 0.1 µM and not below 10 µM, respectively.
Turning to `O=C1CC(c2c(Cl)ccc(-c3ccccc3Cl)c2Cl)CC(O)=C1Sc1ccccc1Cl` (configuration not stated), the IC50 in data set [1] was not below 10 µM; in data set [3] it was 0.06 µM; in data set [2], not below 10 µM.
Take `O=C1CC(c2c(Cl)ccc(-c3cccnc3)c2Cl)CC(O)=C1Sc1ccccc1Cl` (configuration not stated): the IC50 in data set [1] was not below 10 µM; in data set [3], 0.108 µM; in data set [2], not below 10 µM.
For the compound `O=C1CC(c2c(Cl)ccc(-c3ccncc3)c2Cl)CC(O)=C1Sc1ccccc1Cl` (configuration not stated), the half-inhibitory concentration (IC50) was not below 10 µM in data set [1], 0.085 µM in data set [3] and not below 10 µM in data set [2].
In the case of `O=C1CC(c2c(Cl)ccc(-c3cncnc3)c2Cl)CC(O)=C1Sc1ccccc1Cl` (configuration not stated), the IC50 in data set [1] was not below 10 µM; in data set [3], 1.1 µM; in data set [2], not below 10 µM.
Consider `O=C1CC(c2c(Cl)cccc2Cl)CC(O)=C1Sc1cc(O)ccc1Cl` (configuration not stated), for which the IC50 is not below 10 µM in data set [1], 0.12 µM in data set [3] and not below 10 µM in data set [2].
As for `COc1ccc(Cl)c(SC2=C(O)CC(c3c(Cl)cccc3Cl)CC2=O)c1` (configuration not stated), the values for the IC50 in data set [1], in data set [3] and in data set [2] were not below 10 µM, 0.37 µM and not below 10 µM, respectively.
In the case of `Nc1ccc(Cl)c(SC2=C(O)CC(c3c(Cl)cccc3Cl)CC2=O)c1` (configuration not stated), the figures for the IC50 in data set [1], in data set [3] and in data set [2] were not below 10 µM, 0.64 µM and not below 10 µM, respectively.
Take `CNc1ccc(Cl)c(SC2=C(O)CC(c3c(Cl)cccc3Cl)CC2=O)c1` (configuration not stated): the IC50 in data set [1] is not below 10 µM; in data set [3], 0.17 µM; in data set [2], not below 10 µM.
Consider `O=C(O)Cc1ccc(Cl)c(SC2=C(O)CC(c3c(Cl)cccc3Cl)CC2=O)c1` (configuration not stated), for which the values for the IC50 in data set [1], in data set [3] and in data set [2] were not below 10 µM, 3.5 µM and not below 10 µM, respectively.
Consider `CNC(=O)Cc1ccc(Cl)c(SC2=C(O)CC(c3c(Cl)cccc3Cl)CC2=O)c1` (configuration not stated), for which the IC50 in data set [1] was not below 10 µM; in data set [3] it was 1.8 µM; in data set [2], not below 10 µM.
`CN(C)C(=O)Cc1ccc(Cl)c(SC2=C(O)CC(c3c(Cl)cccc3Cl)CC2=O)c1` (configuration not stated): the figures for the IC50 in data set [1], in data set [3] and in data set [2] were not below 10 µM, 10 µM and not below 10 µM, respectively.
`O=C(Cc1ccc(Cl)c(SC2=C(O)CC(c3c(Cl)cccc3Cl)CC2=O)c1)NCCO` (configuration not stated): the IC50 in data set [1] was not below 10 µM; in data set [3] it was 0.3 µM; in data set [2], not below 10 µM.
Turning to `COC(=O)Cc1ccc(Cl)c(SC2=C(O)CC(c3c(Cl)cccc3Cl)CC2=O)c1` (configuration not stated), the IC50 in data set [1] is not below 10 µM; in data set [3], 0.04 µM; in data set [2] it was not below 10 µM.
For the compound `CCOC(=O)Cc1ccc(Cl)c(SC2=C(O)CC(c3c(Cl)cccc3Cl)CC2=O)c1` (configuration not stated), the values for the IC50 in data set [1], in data set [3] and in data set [2] were not below 10 µM, 0.13 µM and not below 10 µM, respectively.
Consider `CC(C)OC(=O)Cc1ccc(Cl)c(SC2=C(O)CC(c3c(Cl)cccc3Cl)CC2=O)c1` (configuration not stated), for which the IC50 is not below 10 µM in data set [1], 0.12 µM in data set [3] and not below 10 µM in data set [2].
Turning to `C[C@@H](OC(=O)Cc1ccc(Cl)c(SC2=C(O)CC(c3c(Cl)cccc3Cl)CC2=O)c1)c1ccccc1` (some centres not stated), the kinetic solubility – broadly, the concentration staying in solution when a stock, usually in DMSO, is diluted into the medium – in data set [4] was determined as 61 µM (≈ 34.3 µg/mL). Further, the figures for the IC50 in data set [1], in data set [3] and in data set [2] were not below 10 µM, 0.006 µM and not below 10 µM, respectively. Also, the Papp A→B (in general, how fast a substance crosses the layer from the apical side) in data set [5] amounted to 10.6 ×10⁻⁶ cm/s. Moreover, the remaining at 1 h in data set [6] turned out to be 72%.
`C[C@H](OC(=O)Cc1ccc(Cl)c(SC2=C(O)CC(c3c(Cl)cccc3Cl)CC2=O)c1)c1ccccc1` (some centres not stated): the IC50 in data set [1] was not below 10 µM; in data set [3], 0.09 µM; in data set [2], not below 10 µM.
As to `CC(C)Oc1ccc(Cl)c(C2CC(=O)C(Sc3cc(O)ccc3Cl)=C(O)C2)c1Cl` (configuration not stated), the IC50 is not below 10 µM in data set [1], 0.03 µM in data set [3] and not below 10 µM in data set [2].
On to `COc1ccc(Cl)c(SC2=C(O)CC(c3c(Cl)ccc(OC(C)C)c3Cl)CC2=O)c1` (configuration not stated), for which the IC50 was not below 10 µM in data set [1], 0.025 µM in data set [3] and not below 10 µM in data set [2].
Regarding `CC(C)Oc1ccc(Cl)c(C2CC(=O)C(Sc3cc(O)ccc3C#N)=C(O)C2)c1Cl` (configuration not stated), the kinetic solubility in data set [4] came out at 50 µM (≈ 23.2 µg/mL). In addition, the IC50 in data set [1] is not below 10 µM; in data set [7], 0.14 µM; in data set [3] it was 0.015 µM; in data set [2], not below 10 µM. In data set [5], the Papp A→B was determined as 1.1 ×10⁻⁶ cm/s. Also, the fraction unbound in data set [8] was less than 0.001.
Consider `COc1ccc(C#N)c(SC2=C(O)CC(c3c(Cl)ccc(OC(C)C)c3Cl)CC2=O)c1` (configuration not stated), for which the IC50 in data set [1] was not below 10 µM; in data set [7] it was 2.4 µM; in data set [3], 0.46 µM; in data set [2], not below 10 µM.
For `COc1ccc(Cl)c(SC2=C(O)CC(c3c(Cl)ccc(-c4ccncc4)c3Cl)CC2=O)c1` (configuration not stated), the IC50 in data set [1] is not below 10 µM; in data set [3] it was 0.035 µM; in data set [2] it was not below 10 µM.
As to `CCOC(=O)Cc1ccc(Cl)c(SC2=C(O)CC(c3c(Cl)ccc(-c4ccccc4)c3Cl)CC2=O)c1` (configuration not stated), the IC50 is not below 10 µM in data set [1], 0.03 µM in data set [3] and not below 10 µM in data set [2].
In data set [4], `COc1ccc(Cl)c(SC2=C(O)CC(c3c(Cl)ccc(NC4CCOCC4)c3Cl)CC2=O)c1` (configuration not stated) yielded a kinetic solubility of 49 µM (≈ 25.9 µg/mL). In addition, the IC50 is not below 10 µM in data set [1], 0.03 µM in data set [3] and not below 10 µM in data set [2]. Besides, in data set [5], the Papp A→B was found to be 14 ×10⁻⁶ cm/s. In data set [8], the fraction unbound is less than 0.001.
